In PubChem BioAssay AID1159565 (GlaxoSmithKline (GSK), 2015) one finds IC50 data, which are given here for 57 compounds.

As a reminder, the IC50 is the point on the concentration scale where inhibition reaches its midpoint. High values mean weaker potency, low ones greater potency.

The first assay has as its system T. cruzi-infected H9C2 cardiomyocytes, high-content imaging. Kind of assay: intracellular T. cruzi amastigote inhibition, imaging, H9C2 host cardiomyocytes, host toxicity (AID 1159565).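 Also: infected cells incubated 72 h after plating.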 As to conditions: measured here: H9C2 host cell toxicity.
Consider `Cc1cccc(N2CCCN(Cc3c[nH]c4ccccc34)CC2)n1`, for which the IC50 turned out to be 2500 nM. In turn, `COc1ccc(C2C3CCCCC3(O)CCN2CC(=O)Nc2ccc(Cl)cc2Cl)cc1` (stereo unspecified) came in with an IC50 of 20000 nM. Compound `Clc1cc(Br)ccc1OCCCCn1ccnc1` had an IC50 of 25000 nM. The compound `CCNc1cc(-c2ccccn2)nc(Nc2ccccc2)n1` yielded an IC50 of 250 nM. `COc1ccc(NC(=O)c2ccc(NC(=O)CN(c3ccccc3C)S(C)(=O)=O)cc2)cc1` gave an IC50 of 25000 nM. The same measure, in the same setting: for `COc1ccc(Cl)cc1CC(=O)Nc1n[nH]c(-c2ccccn2)n1` the value was above 50000 nM; for `CCN(Cc1cccs1)C(=O)CSc1nnc(-c2ccc3c(c2)OCO3)o1`, above 50000 nM.

As for `N#Cc1ccc(S(=O)(=O)N2CCN(Cc3cccc(-c4ccncc4)c3)CC2)cc1`, the IC50 was 25000 nM. Same read-out and setting: in the case of `CC(C)(C)C(=O)NCCc1csc(-c2ccc(F)cc2)n1` it was above 50000 nM; in that of `c1ccc(CNc2cccc3ccncc23)cc1`, above 50000 nM. Compound `O=C(Nc1ccc(Br)c(Cl)c1)Nc1ccc2c(c1)OCO2` came in with an IC50 above 50000 nM.

For the compound `O=c1ccc2ccc(F)c3c2n1C[C@H]3CN1CCN(CC(O)c2cc3c(cn2)OCS3)CC1` (stereo partly specified), the IC50 is above 50000 nM. `Cc1ccc2c(c1)SC(C(=O)Nc1n[nH]c(-c3ccccn3)n1)C2` (stereo unspecified): the IC50 was above 50000 nM.

Turning to `Cc1ccc(Nc2nc(-c3ccccn3)cc(N3CCCC(O)C3)n2)cc1` (stereo unspecified), the IC50 turned out to be 500 nM. Still for that read-out and setting: in the case of `CN(C)S(=O)(=O)c1cccc(C(=O)Nc2nc(-c3ccccn3)cs2)c1` it was 7900 nM. Same read-out and setting: for `c1cncc(CN(Cc2ccco2)Cc2cn[nH]c2-c2cccs2)c1` the value was above 50000 nM; for `CCN(CC)c1nc(Nc2ccncc2)nc2ccccc12`, 7900 nM.

`CC(=O)Nc1ccc(-c2ccnc(Nc3cccc(C#N)c3)n2)cc1` came in with an IC50 of 13000 nM. Turning to `CCNc1cc(-c2ccccn2)nc(Nc2ccc(OC)cc2)n1`, the IC50 turned out to be 320 nM. The same measure, in the same setting: in the case of `O=C(CSc1nnc2ccc(-c3ccc(F)cc3)nn12)N1CCCCC1` it was above 50000 nM; in that of `Clc1ccc(C(CC2CCCCO2)Cn2cncn2)c(Cl)c1` (stereo unspecified), above 50000 nM. `O=C(Nc1ccc(C(F)(F)F)cc1)NC1(C(=O)NCc2ccco2)CCCCC1`: the IC50 was above 50000 nM. `O=C(Nc1nc(-c2ccccn2)cs1)C1CCc2ccccc2C1` (stereo unspecified) yielded a 50% inhibitory concentration (IC50) of 4000 nM. `O=C(Nc1n[nH]c(-c2ccccn2)n1)C1CC1c1ccccc1` (stereo unspecified): the IC50 is above 50000 nM. Take `CC(C)(C)CC(=O)NCCc1csc(-c2ccc(F)cc2)n1`: the IC50 was above 50000 nM. With `NCC(Cc1ccccc1)NC(=O)c1cnc(-c2c[nH]c3ncccc23)s1` (stereo unspecified), the IC50 came out at 630 nM.

`COc1cccc(NS(=O)(=O)c2ccc3[nH]cc(C(=O)NCCC(C)C)c(=O)c3c2)c1` displayed an IC50 of 13000 nM. In turn, `Cc1[nH]nc(-c2nc3ccccc3[nH]2)c1C(=O)NC1CCCNC1` (stereo unspecified) returned an IC50 of 3200 nM.

Compound `N#Cc1cc(N2CCCC2=O)ccc1Sc1ccccc1CO` had an IC50 above 50000 nM.

Staying with this assay, now noted: measured here: amastigotes per cell.
Compound `COc1ccc(C(=O)[C@H]2C[C@@H]2CN(Cc2ccccn2)Cc2ccccn2)cc1` had an IC50 of 1000 nM. Compound `CC(C)C[C@H](NC(=O)c1ccc(-c2ccccc2)o1)C(=O)NC1(C#N)CC1` yielded an IC50 of 25000 nM. The same measure, in the same setting: in the case of `O=C(c1cnn(-c2ccccc2)n1)N1CCCC(n2ccnc2)C1` (stereo unspecified) it was 63 nM; in that of `O=[N+]([O-])c1ccc(-c2nnn(-c3cccnc3)n2)o1`, 63 nM; in that of `O=C(Cc1ccc2c(c1)CCC2)Nc1n[nH]c(-c2ccccn2)n1`, 10000 nM. In the case of `Fc1ccccc1N1C[C@H]2CCN(c3cccnc3)C[C@H]2C1`, the IC50 worked out at 200 nM. Take `Cc1nnnn1-c1cccc(C(=O)N2CCC[C@@]3(C)c4ncncc4CCC23)c1` (stereo partly specified): the IC50 is 320 nM.

`CC(C)Oc1ccc(C(=O)Nc2ccc(N3CCOCC3)c(Cl)c2)cc1` yielded an IC50 of 1300 nM. The compound `CN(Cc1ccc(F)cc1)c1ccc(OCC(=O)N2CCCCC2c2cccnc2)nn1` (stereo unspecified) gave an IC50 of 400 nM. For `COc1ccc(-c2ccc3nnc(-c4ccc(O)c(OC)c4)n3c2)cn1`, the IC50 was determined as 2000 nM.

Compound `CCn1nccc1CN(C)C(=O)C=Cc1ccc(Cl)cc1` showed an IC50 of 320 nM. `Cc1nc2c(-c3ncn[nH]3)cc(NC(=O)Cc3ccccc3)cn2c1C` displayed an IC50 of 790 nM. Regarding `CCc1nn(-c2ncc(F)c(NC(C)C)n2)c(N)c1C1CCCCC1`, the IC50 is 1600 nM.

`CC(C)(C)C(Cn1ccnc1)NC(=O)c1ccc2nc(C3CC3)oc2c1` (stereo unspecified) gave an IC50 of 79 nM. The compound `CN(Cc1ccc(C(N)=O)cc1)C(c1ccc(F)cc1)c1cccnc1` (stereo unspecified) had an IC50 of 200 nM. Same read-out and setting: for `O=C(Nc1nc2ccccc2[nH]1)c1ccc2nc[nH]c2c1` the value was 50000 nM; for `O=C(c1cccc(Nc2ncc(-c3ccc4c(c3)OCO4)cn2)c1)N1CCSC1`, 200 nM; for `Fc1ccc(OC2CC(NCc3cccc4cn[nH]c34)C2)cc1C(F)(F)F` (stereo unspecified), 160 nM. In turn, `COc1ccnc2[nH]cc(-c3cc(C(=O)N[C@H](CO)c4ccccc4)co3)c12` showed an IC50 of 7900 nM. The compound `CCCCN(C(=O)c1ccc(NC(=O)C(C)C)cc1)c1ccccc1` returned an IC50 of 10000 nM. The compound `COc1ccc(NS(=O)(=O)c2cc(NC(=O)Cc3ccc(C)cc3)ccc2N2CCOCC2)cc1` displayed an IC50 of 2500 nM. As to `Cc1ccccc1CNc1cc(C2CC2)nc(-c2nccn2C)n1`, the IC50 is 790 nM. For `COc1ccc(CN(C)Cc2ccncc2)cc1-c1ccc(S(=O)(=O)NC2CCC2)s1`, the half-maximal inhibitory concentration (IC50) amounted to 500 nM.

Regarding `O=C1CCCCCC1(Cc1cnc[nH]1)c1ccc(Cl)cc1Cl` (stereo unspecified), the IC50 was 320 nM. Regarding `CN(Cc1cc2ccccc2s1)c1ncc2c(N)nc(N)nc2n1`, the IC50 amounted to 790 nM.

In turn, `OCCCNc1nc(Nc2ccncc2)nc2ccccc12` returned an IC50 of 200 nM.

The compound `Cc1cc(C)c(C#N)c(SCC(=O)c2ccc3c(c2)OCO3)n1` registered an IC50 of 400 nM. `O=C(Nc1ncc([N+](=O)[O-])s1)C1CC1` showed an IC50 of 400 nM.

Compound `Cc1cccc(N2CCCN(Cc3c[nH]c4ccccc34)CC2)n1` registered an IC50 of 320 nM. On to `COc1ccc(C2C3CCCCC3(O)CCN2CC(=O)Nc2ccc(Cl)cc2Cl)cc1` (stereo unspecified), for which the IC50 is 790 nM. Regarding `Clc1cc(Br)ccc1OCCCCn1ccnc1`, the IC50 was 320 nM. Consider `CCNc1cc(-c2ccccn2)nc(Nc2ccccc2)n1`, for which the IC50 was found to be 3200 nM.

In turn, `COc1ccc(NC(=O)c2ccc(NC(=O)CN(c3ccccc3C)S(C)(=O)=O)cc2)cc1` returned an IC50 of 20000 nM.

Compound `COc1ccc(Cl)cc1CC(=O)Nc1n[nH]c(-c2ccccn2)n1` returned an IC50 of 10000 nM. For `CCN(Cc1cccs1)C(=O)CSc1nnc(-c2ccc3c(c2)OCO3)o1`, the 50% inhibitory concentration (IC50) turned out to be 1600 nM. `N#Cc1ccc(S(=O)(=O)N2CCN(Cc3cccc(-c4ccncc4)c3)CC2)cc1` yielded an IC50 of 200 nM. Still for that read-out and setting: for `CC(C)(C)C(=O)NCCc1csc(-c2ccc(F)cc2)n1` the value was 2500 nM; for `c1ccc(CNc2cccc3ccncc23)cc1`, 5000 nM; for `O=C(Nc1ccc(Br)c(Cl)c1)Nc1ccc2c(c1)OCO2`, 2000 nM. Compound `O=c1ccc2ccc(F)c3c2n1C[C@H]3CN1CCN(CC(O)c2cc3c(cn2)OCS3)CC1` (stereo partly specified) came in with an IC50 of 320 nM. Same read-out and setting: for `Cc1ccc2c(c1)SC(C(=O)Nc1n[nH]c(-c3ccccn3)n1)C2` (stereo unspecified) the value was 6300 nM; for `Cc1ccc(Nc2nc(-c3ccccn3)cc(N3CCCC(O)C3)n2)cc1` (stereo unspecified), 2500 nM.

With `CN(C)S(=O)(=O)c1cccc(C(=O)Nc2nc(-c3ccccn3)cs2)c1`, the IC50 is 1000 nM. Compound `c1cncc(CN(Cc2ccco2)Cc2cn[nH]c2-c2cccs2)c1` yielded an IC50 of 40 nM. On to `CCN(CC)c1nc(Nc2ccncc2)nc2ccccc12`, for which the IC50 is 5 nM. Same read-out and setting: in the case of `CC(=O)Nc1ccc(-c2ccnc(Nc3cccc(C#N)c3)n2)cc1` it was 3200 nM; in that of `CCNc1cc(-c2ccccn2)nc(Nc2ccc(OC)cc2)n1`, 2500 nM. Compound `O=C(CSc1nnc2ccc(-c3ccc(F)cc3)nn12)N1CCCCC1` had an IC50 of 1000 nM. On the same count and under the same terms, for `Clc1ccc(C(CC2CCCCO2)Cn2cncn2)c(Cl)c1` (stereo unspecified) the value was 1000 nM; for `O=C(Nc1ccc(C(F)(F)F)cc1)NC1(C(=O)NCc2ccco2)CCCCC1`, above 50000 nM. On to `O=C(Nc1nc(-c2ccccn2)cs1)C1CCc2ccccc2C1` (stereo unspecified), for which the IC50 was 2000 nM.

In the case of `O=C(Nc1n[nH]c(-c2ccccn2)n1)C1CC1c1ccccc1` (stereo unspecified), the IC50 was 16000 nM.

In the case of `CC(C)(C)CC(=O)NCCc1csc(-c2ccc(F)cc2)n1`, the IC50 stood at 790 nM. In turn, `NCC(Cc1ccccc1)NC(=O)c1cnc(-c2c[nH]c3ncccc23)s1` (stereo unspecified) registered an IC50 of 20000 nM. Still for that read-out and setting: in the case of `COc1cccc(NS(=O)(=O)c2ccc3[nH]cc(C(=O)NCCC(C)C)c(=O)c3c2)c1` it was 16000 nM; in that of `Cc1[nH]nc(-c2nc3ccccc3[nH]2)c1C(=O)NC1CCCNC1` (stereo unspecified), 40 nM.

Compound `N#Cc1cc(N2CCCC2=O)ccc1Sc1ccccc1CO` showed an IC50 of 250 nM.
